Laboratory results from patent US4183931A, “2-Ketoalkyl-4(3H)-quinazolinones” (Research Corporation, priority 1977, dated 1980).
Read-outs that look alike come from different tables or passages of the source.

Tests used:
[1] = NINCDS Subcutaneous Pentylenetetrazol (Metrazol) Seizure Threshold Test (scMet); type: in vivo, mice; conditions: Mus musculus, sc, read-out: scMet: dosage level that elicited protection
Method: 1. Neurological Activity Tests. […] Compounds were evaluated for anticonvulsant activity in two seizure models, the maximal electroshock seizure (MES) test and the subcutaneous pentylenetetrazol (Metrazol) seizure threshold (scMet) test.
Subcutaneous Pentylenetetrazol (Metrazol) Seizure Threshold Test (scMet) produces threshold (clonic) seizures. Pentylenetetrazol is administered subcutaneously as a threshold 0.5% solution (in 0.9% sodium chloride) in a loose fold of skin on the back of the neck in a dose of 85 mg/kg. […] Metrazol is given 10 minutes before the beginning of the test to allow for the delay in onset of Metrazol action. The animal is observed for 30 minutes. Failure to observe even a threshold seizure (a single episode of clonic spasms at least 5 seconds in duration) is defined as protection and indicates anticonvulsant activity in the test compound. These two methods of seizure provocation reliably elicit well-characterizied seizure phenomena.
The ability of a compound to prevent maximal electroshock seizures is believed to correlate with its ability to prevent the spread of seizure discharge through neural tissue. Activity against maximal electroshock seizures is thought to indicate potential efficacy in the treatment of major motor (grand mal) seizures. […] Selective action in the test is believed to indicate potential efficacy against absence (petit mal) seizures.
As described earlier, the MES, scMet and Rotorod tests were performed one-half hour and four hours after administration of each compound.
In the Secondary Evaluation, median effective doses (ED50) are determined in the MES, scMet and Rotorod assays using the procedures defined in Pharmacology, 95, 99-113 (1949).
Separate groups of animals are used for each time period. The times of peak toxic and anticonvulsant effect are taken from the resulting graph of percent of animals responding vs. time, and the determinations of median effective doses are performed at those times.

[2] = NPP lethality (estimated LD50); conditions: mouse, in vivo, ip
Method: (§1) The procedures for the determination of a neuropharmacological profile involved white male mice of the Carworth Farm Strain CF-1 weighing 18 to 22 grams. […] Intraperitoneal injections were administered in logarithmic progression and sequentially. The dose levels employed routinely were 10, 30, 100 and 300 mg/kg, using four male mice at each dose level. Since this test was conducted in a sequential manner, the first does administered was at 300 mg/kg. […] Approximately thirty-eight signs and symptoms of pharmacological activity can be identified.
(§2) The animals were observed continously for one hour and, if no signs of pharmacological or toxicological activity were present at the end of the first hour, they were intermittently checked for activity every fifteen minutes thereafter for two consecutive hours. […] The observation period began immediately following the injection and the animals were then continuously observed for three hours and intermittently checked thereafter for forty-eight hours. The animals were observed and signs and symptoms of pharmacological activity were recorded continuously until no further symptoms developed and until the symptoms that appeared were no longer present. […] In such instances, the animals were observed beyond this period until they returned to normal. Routinely, the number of animals alive at the end of the forty-eight hour observation period was recorded and the LD50 estimated.
(§3) Scores for behavioral symptoms, including depression, righting reflex and ataxia, are the actual numbers reported. Protection against MES is reported as a percentage. Since four animals were involved in this test, the findings are 0% for none protected, 25% for one out of four, etc. […] In order to maintain reasonable uniformity in the reporting of results, each entry corresponds to a dosage level of 100 mg/kg. Any variations from that dosage are indicated.

[3] = Neuropharmacological Profile (NPP): general CNS observational screen (depression, righting reflex, ataxia); conditions: for Depression: at 300 mg/kg
Method: Representative compounds according to the present invention were tested for central nervous system activity by Pharmakon Laboratories of Scranton, Pennsylvania. The battery of general observational procedures used is referred to herein as a Neuropharmacological Profile (NPP). Additionally, representative compounds were tested in the Anticonvulsant Screening Project of the National Institutes of Neurological and Communicative Disorders and Stroke (NINCDS) at the University of Utah under the direction of Dr. Ewart A. Swinyard.
as §1, §2
The animals are free to move about for evaluation of spatial orientation, alertness and spontaneous motor activity.
(§4) Since this is a general CNS screening procedure, only peak effects were recorded. Certain measures of behavior and neurological deficit were scored in terms of intensity of effect, while most others were determined on an all or none basis. Thus, in scoring measures which were normally present, e.g., spontaneous activity and skin color, an increase in score from 4 to 8 was used to denote stimulation or enhancement of skin color, whereas a decrease in score from 4 to 0 indicated depression or cyanosis. For scoring measures normally absent, e.g., depression, righting reflex and ataxia, activity was reflected as an increase in score from 0 to 8. The 0 to 8 scale was rounded off so that the actual ratings are only 0, 2, 4, 6 and 8. The compounds were also evaluated for anticonvulsant activity by using the maximal electroshock seizure (MES) test. In the MES study, four mice were dosed intraperitoneally at 100 mg/kg and challenged thirty minutes later with 50 mA, 0.2 second duration of electroshock. A protection ratio (number of mice protected from tonic extension .div. number of mice tested) was then established.
At the termination of the test, the results were recorded and tabulated.
as §3

[4] = NPP maximal electroshock seizure (MES) protection; type: in vivo, white male mice of the Carworth Farm Strain CF-1; conditions: Mus musculus, ip; for responders at 100 mg/kg: 0.5 h, at 100 mg/kg i.p., four mice, 30 min after dosing
Method: as §1, §4, §3

[5] = after 4 hr (value in parentheses)
[6] = at 30 mg/kg (value in parentheses), i.p., mice, score 0-8
[7] = at 100 mg/kg, i.p., mice, score 0-8

| Structure (SMILES) | LD50 at 48 h [2] | CNS Depression [3, 6] | responders at 100 mg/kg [4] | CNS Depression [3, 7] | further results |
| --- | --- | --- | --- | --- | --- |
| Cc1ccccc1-n1c(CCc2ccccc2)nc2ccccc2c1=O [CH2 C6 H5, reference compound] | – | – | – | – | minimal effective dose ([1]; after 0.5 hr): 300 mg/kg; minimal effective dose [1, 5]: 300 mg/kg |
| Cc1ccccc1-n1c(CC(=O)C(F)(F)F)nc2ccccc2c1=O [IIIa, 2-(3,3,3-Trifluoroacetonyl)-3-o-tolyl-4(3H)-quinazoline] | > 562 mg/kg | 4 | 50% | – | Ataxia [3, 7]: 2 |
| Cc1ccccc1-n1c(CC(=O)c2ccccn2)nc2ccccc2c1=O [IIIb, 2-[2-Oxo-2-(2-pyridyl)ethyl]-3-o-tolyl-4-(3H)-quinazolinone] | > 562 mg/kg | – | 0% | 2 | minimal effective dose ([1]; after 0.5 hr): 300 mg/kg |
| Cc1ccccc1-n1c(CC(=O)c2cccnc2)nc2ccccc2c1=O [IIIc, 2-[2-Oxo-2-(3-pyridyl)ethyl]-3-o-tolyl-4(3H)-quinazolinone] | 562 mg/kg | 4 | 100% | 6 | minimal effective dose [1, 5]: 300 mg/kg; Ataxia [3, 7]: 8 |
| Cc1ccccc1-n1c(CC(=O)C=Cc2ccccc2)nc2ccccc2c1=O [IIIf, 2-(2-Oxo-4-phenylbut-3-enyl)-3-o-tolyl-4(3H)-quinazolinone] | > 562 mg/kg | 2 | 25% | 4 | – |
| Cc1ccccc1-n1c(CC(=O)c2ccccc2)nc2ccccc2c1=O [IIIg, 2-(2-Oxo-2-phenylethyl)-3-o-tolyl-4(3H)-quinazolinone] | > 562 mg/kg | 4 | 0% | 4 | – |
| Cc1ccccc1-n1c(CC(=O)c2ccc(Cl)cc2)nc2ccccc2c1=O [IIIh, 2-[2-Oxo-2-(4-chlorophenyl)ethyl]-3-o-tolyl-4(3H)-quinazolinone] | 316 mg/kg | – | 0% | 0 | Depression ([3]; i.p., mice, score 0-8): 4 |
| COc1ccc(C(=O)Cc2nc3ccccc3c(=O)n2-c2ccccc2C)cc1 [IIIi, 2-[2-Oxo-2-(4-methoxyphenyl)ethyl]-3-o-tolyl-4(3H)-quinazolinone] | > 562 mg/kg | – | 0% | 2 | Depression ([3]; i.p., mice, score 0-8): 4 |
| COc1cc(C(=O)Cc2nc3ccccc3c(=O)n2-c2ccccc2C)cc(OC)c1OC [IIIj, 2-[2-Oxo-2-(3,4,5-trimethoxyphenyl)ethyl]-3-o-tolyl-4(3H)-quinazolinone] | > 562 mg/kg | – | 0% | 2 | Depression ([3]; i.p., mice, score 0-8): 4 |
| CCOC(=O)C(=O)Cc1nc2ccccc2c(=O)n1-c1ccccc1C [IIIm, 2-Ethoxallylmethyl-3-o-tolyl-4(3H)-quinazolinone] | > 562 mg/kg | – | 0% | 4 | – |
| CC(=O)Cc1nc2ccccc2c(=O)n1-c1ccccc1C [IIIn, 2-Acetonyl-3-o-tolyl-4(3H)-quinazolinone] | > 562 mg/kg | 4 | 0% | 8 | minimal effective dose [1, 5]: 300 mg/kg; behavioral activity compared with methaqualone ([3]; NPP summary): equal to methaqualone in affecting behavioral activity; muscle relaxant properties ([3]; NPP summary): possible muscle relaxant properties not exhibited by methaqualone itself |
| O=C(Cc1nc2ccccc2c(=O)n1-c1ccccc1Cl)c1ccccn1 [IVb, 2-[2-Oxo-2-(2-pyridyl)ethyl]-3-o-chlorophenyl-4(3H)-quinazolinone] | 562 mg/kg | – | 0% | 0 | Depression ([3]; i.p., mice, score 0-8): 2 |
| O=C(Cc1nc2ccccc2c(=O)n1-c1ccccc1)C(F)(F)F [IVe, 2-(3,3,3-Trifluoroacetonyl)-3-phenyl-4(3H)-quinazolinone] | 562 mg/kg | – | 0% | 2 | – |
| O=C(Cc1nc2ccccc2c(=O)n1-c1ccccc1)c1ccncc1 [IVh, 2-[2-Oxo-2-(4-pyridyl)ethyl]-3-phenyl-4(3H)-quinazolinone] | – | – | – | – | minimal effective dose ([1]; after 0.5 hr): 100 mg/kg |
| Cc1ccc(-n2c(CC(=O)C(F)(F)F)nc3ccccc3c2=O)cc1 [IVi, 2-(3,3,3-Trifluoroacetonyl)-3-p-tolyl-4(3H)-quinazolinone] | 562 mg/kg | – | 100% | 4 | Ataxia [3, 7]: 2 |
| Cc1ccc(-n2c(CC(=O)c3cccnc3)nc3ccccc3c2=O)cc1 [IVk, 2-[2-Oxo-2-(3-pyridyl)ethyl]-3-p-tolyl-4(3H)-quinazolinone] | 562 mg/kg | – | 0% | 4 | – |
| Cc1ccc(-n2c(CC(=O)c3ccncc3)nc3ccccc3c2=O)cc1 [IVl, 2-[2-Oxo-2-(4 pyridyl)ethyl]-3-p-tolyl-4(3H)-quinazolinone] | – | – | – | – | minimal effective dose [1, 5]: 300 mg/kg |
| Cn1c(CC(=O)c2ccccc2)nc2ccccc2c1=O [IVr, 2-(2-Oxo-2-phenylethyl)-3-methyl-4(3H)-quinazolinone] | – | – | – | – | minimal effective dose [1, 5]: 300 mg/kg |
| Cn1c(CC(=O)c2cccnc2)nc2ccccc2c1=O [IVs, 2-[2-Oxo-2-(3-pyridyl)ethyl]-3-methyl-4(3H)-quinazolindone] | 422 mg/kg | – | 0% | 4 | – |
| Cc1ccc(-n2c(C)nc3ccccc3c2=O)cc1 [p-tolyl H, 2-methyl-3-p-tolyl-4(3H)-quinazolinone, reference compound] | > 562 mg/kg | 4 | 100% | 8 | Ataxia [3, 7]: 8 |
| Cc1nc2ccccc2c(=O)n1-c1ccccc1 [phenyl H, 2-methyl-3-phenyl-4(3H)-quinazolinone, reference compound] | 562 mg/kg | 4 | – | 8 | Ataxia [3, 7]: 8; Righting reflex [3, 7]: 8; responders at 30 mg/kg ([4]; conducted at 30 mg/kg i.p.): 0% |
